Data on 35 compounds can be found in patent publication US9920010B2, “CXCR7 receptor modulators” (IDORSIA PHARMACEUTICALS LTD, priority 2013, dated 2018).

For the experiment, the target named is T1, CXCR7 (Homo sapiens, UniProt P25106).
T1 construct: host or cells: CHO-K1 (PathHunter CHO-K1 CXCR7 b-arrestin cell line, stably transfected)
Nature of the experiment: PathHunter CHO-K1 CXCR7 b-arrestin recruitment assay (CXCR7 agonistic activity). The experiment is classed as cell-based. Conditions: PathHunter CHO-K1 CXCR7 b-arrestin cell line. An outline of the steps: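 Stable CHO-K1 line with C-terminally ProLink-tagged CXCR7 and β-arrestin 2–EA fusion; β-arrestin recruitment restores β-gal activity, read by chemiluminescence after 1 h RT detection. Cells seeded 24 h, starved in OPTIMEM 3–4 h, exposed to compounds 90 min at 37 °C in HBSS/HEPES/BSA. Geometric-mean EC50 from repeated measurements.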
(In general: Activated receptors often draw arrestin, which recruitment assays turn into a signal.)

T1 sequence (P25106 whole entry): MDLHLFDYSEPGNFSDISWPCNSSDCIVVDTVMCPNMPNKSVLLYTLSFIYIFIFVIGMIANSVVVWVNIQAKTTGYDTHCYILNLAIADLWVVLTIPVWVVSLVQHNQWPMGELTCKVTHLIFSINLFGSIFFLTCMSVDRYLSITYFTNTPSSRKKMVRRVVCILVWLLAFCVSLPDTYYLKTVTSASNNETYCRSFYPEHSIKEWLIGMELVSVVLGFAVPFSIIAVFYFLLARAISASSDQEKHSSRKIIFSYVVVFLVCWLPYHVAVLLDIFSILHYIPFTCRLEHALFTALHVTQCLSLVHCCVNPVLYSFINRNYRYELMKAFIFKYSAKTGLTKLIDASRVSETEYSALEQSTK
T1 sequence (P32121 whole entry partner): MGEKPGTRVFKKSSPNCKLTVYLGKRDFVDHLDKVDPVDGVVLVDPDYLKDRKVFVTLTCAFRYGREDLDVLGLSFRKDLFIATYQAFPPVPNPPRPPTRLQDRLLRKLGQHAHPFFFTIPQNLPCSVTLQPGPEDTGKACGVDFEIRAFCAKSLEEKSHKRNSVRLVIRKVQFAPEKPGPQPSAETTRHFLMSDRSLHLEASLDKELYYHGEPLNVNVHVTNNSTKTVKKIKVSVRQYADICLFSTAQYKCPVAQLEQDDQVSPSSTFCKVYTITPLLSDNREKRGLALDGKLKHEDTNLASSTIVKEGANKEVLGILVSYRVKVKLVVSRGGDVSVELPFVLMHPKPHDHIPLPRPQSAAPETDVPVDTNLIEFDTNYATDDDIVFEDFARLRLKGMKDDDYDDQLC

As to `CCN1CCc2c(cccc2OCC(=O)N(CCN(C)C)Cc2ccccc2Cl)C1` [compound 171, N-(2-Chloro-benzyl)-N-(2-dimethylamino-ethyl)-2-(2-ethyl-1,2,3,4-tetrahydro-isoquinolin-5-yloxy)-acetamide], the response was half-maximal at 18 nM (EC50).

Take `CC(C)C(=O)N1CCc2c(cccc2NCC(=O)N(CCN(C)C)Cc2ccccc2)C1` [compound 115]: the 50% effective concentration (EC50) was 54 nM. The compound `CN1CCC(N(Cc2ccccc2C(F)(F)F)C(=O)CNc2cccc3c2CCN(CC2CC2)C3)CC1` [Example 105, 2-(2-Cyclopropylmethyl-1,2,3,4-tetrahydro-isoquinolin-5-ylamino)-N-(1-methyl-piperidin-4-yl)-N-(2-trifluoromethyl-benzyl)-acetamide] displayed an EC50 of 9 nM.

As to `CCN1CCc2cccc(NCC(=O)N(CCN(C)C)Cc3cccc(C)n3)c2C1` [compound 526, N-(2-Dimethylamino-ethyl)-2-(2-ethyl-1,2,3,4-tetrahydro-isoquinolin-8-ylamino)-N-(6-methyl-pyridin-2-ylmethyl)-acetamide], the EC50 was determined as 44 nM. As to `CN(C)CCN(Cc1ccccc1)C(=O)CNc1cccc2c1CCN(CC1CC1)C2` [compound 110, N-Benzyl-2-(2-cyclopropylmethyl-1,2,3,4-tetrahydro-isoquinolin-5-ylamino)-N-(2-dimethylamino-ethyl)-acetamide], the response was half-maximal at 14 nM (EC50). As for `CC(C)OC(=O)N1CCc2c(cccc2NCC(=O)N(CCN(C)C)Cc2ccccc2)C1` [compound 121], the EC50 came out at 101 nM. In the case of `CCC(=O)N1CCc2c(cccc2NCC(=O)N(CCC(C)C)Cc2ccccc2)C1` [Example 12, N-Benzyl-N-(3-methyl-butyl)-2-(2-propionyl-1,2,3,4-tetrahydro-isoquinolin-5-ylamino)-acetamide], the midpoint of the response, the EC50, lay at 194 nM. In turn, `CC(C)(O)CN(Cc1ncccc1Cl)C(=O)CNc1cccc2c1CN(C1CCC1)CC2` [compound 457] registered an EC50 of 232 nM. For `CCN1CCc2cccc(NCC(=O)N(CCN(C)C)Cc3ccccc3C(F)(F)F)c2C1` [compound 555, N-(2-Dimethylamino-ethyl)-2-(2-ethyl-1,2,3,4-tetrahydro-isoquinolin-8-ylamino)-N-(2-trifluoromethyl-benzyl)-acetamide] the value was 6 nM; for `CCC(=O)N1CCc2c(cccc2NCC(=O)N(CCN(C)C)Cc2ccc(C)cc2)C1` [Example 16, N-(2-Dimethylamino-ethyl)-N-(4-methyl-benzyl)-2-(2-propionyl-1,2,3,4-tetrahydro-isoquinolin-5-ylamino)-acetamide], 63 nM; for `CN(C)CCN(Cc1ccccc1C(F)(F)F)C(=O)CNc1ccc(Cl)c2c1CCN(CC1CC1)C2` [Example 287, 2-(8-Chloro-2-cyclopropylmethyl-1,2,3,4-tetrahydro-isoquinolin-5-ylamino)-N-(2-dimethylamino-ethyl)-N-(2-trifluoromethyl-benzyl)-acetamide], 150 nM. Regarding `CN(C)CCN(CCc1ccccc1)C(=O)CNc1cccc2c1CCN(CC1CC1)C2` [Example 36, 2-(2-Cyclopropylmethyl-1,2,3,4-tetrahydro-isoquinolin-5-ylamino)-N-(2-dimethylamino-ethyl)-N-phenethyl-acetamide], the EC50 was found to be 25 nM. For `O=C(CNc1cccc2c1CN(CC1CC1)CC2)N(CC(=O)N1CC(F)(F)C1)Cc1ccccc1C(F)(F)F` [compound 482, 2-(2-Cyclopropylmethyl-1,2,3,4-tetrahydro-isoquinolin-8-ylamino)-N-[2-(3,3-difluoro-azetidin-1-yl)-2-oxo-ethyl]-N-(2-trifluoromethyl-benzyl)-acetamide], a half-maximal effect (EC50) was put at 32 nM. On to `CC(C)(O)CN(Cc1ncccc1Br)C(=O)CNc1cccc2c1CN(C(=O)[C@H]1C[C@H]1F)CC2` (relative stereo) [compound 461], for which the EC50 is 420 nM.

As to `CCN1CCc2cccc(NCC(=O)N(CCN(C)C)Cc3cccc(OC)c3)c2C1` [compound 498], the EC50 is 118 nM. For `O=C(CNc1cccc2c1CCN(CC1CC1)C2)N(Cc1ccccc1)C1CCS(=O)(=O)C1` (racemic) [Example 70, rac-N-Benzyl-2-(2-cyclopropylmethyl-1,2,3,4-tetrahydro-isoquinolin-5-ylamino)-N-(1,1-dioxo-tetrahydro-1|6-thiophen-3-yl)-acetamide] the value was 189 nM; for `O=C(CNc1cccc2c1CCN(CC1CC1)C2)N(CCCN1CCCC1)Cc1ccccc1C(F)(F)F` [Example 214, 2-(2-Cyclopropylmethyl-1,2,3,4-tetrahydro-isoquinolin-5-ylamino)-N-(3-pyrrolidin-1-yl-propyl)-N-(2-trifluoromethyl-benzyl)-acetamide], 3 nM; for `O=C(CNc1cccc2c1CN(CC1CC1)CC2)N(CCN1CCCC(F)(F)C1)Cc1ccccc1C(F)(F)F` [compound 478], 92 nM.

Turning to `O=C(CNc1cccc2c1CCN(CC1CC1)C2)N(CCN1CCCC1)Cc1ccccc1F` [Example 44, 2-(2-Cyclopropylmethyl-1,2,3,4-tetrahydro-isoquinolin-5-ylamino)-N-(2-fluoro-benzyl)-N-(2-pyrrolidin-1-yl-ethyl)-acetamide], the EC50 turned out to be 3 nM. `CCOC(=O)N1CCc2c(cccc2NCC(=O)N(CCNC)Cc2ccccc2C(F)(F)F)C1` [compound 395, 5-({[(2-Methylamino-ethyl)-(2-trifluoromethyl-benzyl)-carbamoyl]-methyl}-amino)-3,4-dihydro-1H-isoquinoline-2-carboxylic acid ethyl ester]: a half-maximal effect (EC50) was put at 32 nM. Regarding `CN(C)CCN(Cc1ccccc1Cl)C(=O)COc1cccc2c1CCN(CC1CC1)C2` [compound 172, N-(2-Chloro-benzyl)-2-(2-cyclopropylmethyl-1,2,3,4-tetrahydro-isoquinolin-5-yloxy)-N-(2-dimethylamino-ethyl)-acetamide], the EC50 was 2 nM.

Compound `CNCCN(Cc1ncccc1C(F)(F)F)C(=O)CNc1cccc2c1CCN(C(=O)NC(C)C)C2` [compound 430, 5-({[(2-Methylamino-ethyl)-(3-trifluoromethyl-pyridin-2-ylmethyl)-carbamoyl]-methyl}-amino)-3,4-dihydro-1H-isoquinoline-2-carboxylic acid isopropylamide] displayed an EC50 of 9 nM.

With `CN(C)CCN(Cc1ccccc1C(F)(F)F)C(=O)CNc1cccc2c1CN(S(C)(=O)=O)CC2` [Example 544, N-(2-Dimethylamino-ethyl)-2-(2-methanesulfonyl-1,2,3,4-tetrahydro-isoquinolin-8-ylamino)-N-(2-trifluoromethyl-benzyl)-acetamide], the EC50 turned out to be 34 nM. For `CCOC(=O)CN(Cc1ccccc1)C(=O)/C=C/c1cccc2c1CCN(C(=O)OC(C)(C)C)C2` [Example 94, 5-[(E)-2-(Benzyl-ethoxycarbonylmethyl-carbamoyl)-vinyl]-3,4-dihydro-1H-isoquinoline-2-carboxylic acid tert-butyl ester] the value was 452 nM; for `CN(C)CCN(Cc1ccccc1)C(=O)/C=C/c1cccc2c1CCN(CC1CC1)C2` [compound 143, (E)-N-Benzyl-3-(2-cyclopropylmethyl-1,2,3,4-tetrahydro-isoquinolin-5-yl)-N-(2-dimethylamino-ethyl)-acrylamide], 3 nM; for `CNCCN(Cc1ncccc1C(F)(F)F)C(=O)CNc1cccc2c1CCN(C(=O)OC)C2` [compound 419, 5-({[(2-Methylamino-ethyl)-(3-trifluoromethyl-pyridin-2-ylmethyl)-carbamoyl]-methyl}-amino)-3,4-dihydro-1H-isoquinoline-2-carboxylic acid methyl ester], 6 nM.

Turning to `C=CCN1CCc2cccc(CCC(=O)N(CCN(C)C)Cc3ccccc3C(F)(F)F)c2C1` [compound 468, 3-(2-Allyl-1,2,3,4-tetrahydro-isoquinolin-8-yl)-N-(2-dimethylamino-ethyl)-N-(2-trifluoromethyl-benzyl)-propionamide], the EC50 worked out at 10 nM.

With `CCN1CCc2cccc(NCC(=O)N(CCN(C)C)Cc3cccc(F)c3)c2C1` [compound 503], the EC50 stood at 65 nM.

`CC(C)(C)OC(=O)N1CCN(CCN(Cc2ccccc2C(F)(F)F)C(=O)CNc2cccc3c2CCN(CC2CC2)C3)CC1` [Example 216, 4-{2-[[2-(2-Cyclopropylmethyl-1,2,3,4-tetrahydro-isoquinolin-5-ylamino)-acetyl]-(2-trifluoromethyl-benzyl)-amino]-ethyl}-piperazine-1-carboxylic acid tert-butyl ester] returned an EC50 of 34 nM. For `C#CCOC(=O)N1CCc2c(cccc2NCC(=O)N(CCNC)Cc2ccccc2C(F)(F)F)C1` [compound 396, 5-({[(2-Methylamino-ethyl)-(2-trifluoromethyl-benzyl)-carbamoyl]-methyl}-amino)-3,4-dihydro-1H-isoquinoline-2-carboxylic acid prop-2-ynyl ester] the value was 38 nM; for `CN(C)CCN(Cc1ccccc1C(F)(F)F)C(=O)CNc1cccc2c1CN(C(=O)N(C)C)CC2` [Example 546, 8-({[(2-Dimethylamino-ethyl)-(2-trifluoromethyl-benzyl)-carbamoyl]-methyl}-amino)-3,4-dihydro-1H-isoquinoline-2-carboxylic acid dimethylamide], 8 nM; for `CN(C)CCN(Cc1ccccc1)C(=O)COc1cccc2c1CCN(C)C2` [compound 164], 84 nM. `CNCCN(Cc1ncccc1C(F)(F)F)C(=O)CNc1cccc2c1CCN(C(=O)CC(C)C)C2` [compound 416] registered an EC50 of 86 nM. Turning to `O=C(/C=C/c1cccc2c1CCN(CC1CC1)C2)N(CCc1ccc(F)cc1)Cc1ccccc1` [compound 148], the EC50 came to 54 nM. Take `CN(C)CCN(Cc1ncccc1Br)C(=O)CNc1cccc2c1CN(C1CCC1)CC2` [compound 456, N-(3-Bromo-pyridin-2-ylmethyl)-2-(2-cyclobutyl-1,2,3,4-tetrahydro-isoquinolin-8-ylamino)-N-(2-dimethylamino-ethyl)-acetamide]: it took 8 nM to reach a half-maximal effect (EC50).

One may read the EC50 as the concentration giving half of the maximal effect. A lower EC50 goes with a more potent agent.
